The subject of the assay is human iPS cells (253G1 lines and 201B7 lines). The assay can be described thus: Observation of colony morphology of human iPS cells by light microscope. The assay is classed as cell-based. To be noted: xylose 3 g/L, 0, 24, 48, 72 hours, KSR. As to the method:
During culture period, medium change was performed daily.
For a xylose medium for iPS cells in which xylose concentrations were 3 g/L and 15 g/L, the morphology of iPS cell colonies at 96 and 120 hours after culture was also observed with a light microscope (IX70, manufactured by Olympus Corporation).

With `O=C[C@@H](O)[C@H](O)[C@@H](O)CO` [L-xylose], the “colony morphology and proliferation inhibitory effects, D-xylose versus L-xylose” value is on record as “no differences”. Next, `O=C[C@H](O)[C@@H](O)[C@H](O)CO` [D-xylose]: “no differences”.

The values are drawn from patent US9883669B2, “Maintenance medium for primate pluripotent stem cells” (priority 2014, dated 2018).
